{
  "source": "patent US20240083896A1",
  "about": "“Nitrogen Containing 2,3-Dihydroquinazolinone Compounds as Nav1.8 Inhibitors” (GlaxoSmithKline Intellectual Property Development Limited, priority 2020, published 2024)",
  "data": [
    {"biological_target": "human Nav1.8 (Homo sapiens (Human), UniProt Q9Y5Y9)", "sequence (Q9Y5Y9 whole entry)": "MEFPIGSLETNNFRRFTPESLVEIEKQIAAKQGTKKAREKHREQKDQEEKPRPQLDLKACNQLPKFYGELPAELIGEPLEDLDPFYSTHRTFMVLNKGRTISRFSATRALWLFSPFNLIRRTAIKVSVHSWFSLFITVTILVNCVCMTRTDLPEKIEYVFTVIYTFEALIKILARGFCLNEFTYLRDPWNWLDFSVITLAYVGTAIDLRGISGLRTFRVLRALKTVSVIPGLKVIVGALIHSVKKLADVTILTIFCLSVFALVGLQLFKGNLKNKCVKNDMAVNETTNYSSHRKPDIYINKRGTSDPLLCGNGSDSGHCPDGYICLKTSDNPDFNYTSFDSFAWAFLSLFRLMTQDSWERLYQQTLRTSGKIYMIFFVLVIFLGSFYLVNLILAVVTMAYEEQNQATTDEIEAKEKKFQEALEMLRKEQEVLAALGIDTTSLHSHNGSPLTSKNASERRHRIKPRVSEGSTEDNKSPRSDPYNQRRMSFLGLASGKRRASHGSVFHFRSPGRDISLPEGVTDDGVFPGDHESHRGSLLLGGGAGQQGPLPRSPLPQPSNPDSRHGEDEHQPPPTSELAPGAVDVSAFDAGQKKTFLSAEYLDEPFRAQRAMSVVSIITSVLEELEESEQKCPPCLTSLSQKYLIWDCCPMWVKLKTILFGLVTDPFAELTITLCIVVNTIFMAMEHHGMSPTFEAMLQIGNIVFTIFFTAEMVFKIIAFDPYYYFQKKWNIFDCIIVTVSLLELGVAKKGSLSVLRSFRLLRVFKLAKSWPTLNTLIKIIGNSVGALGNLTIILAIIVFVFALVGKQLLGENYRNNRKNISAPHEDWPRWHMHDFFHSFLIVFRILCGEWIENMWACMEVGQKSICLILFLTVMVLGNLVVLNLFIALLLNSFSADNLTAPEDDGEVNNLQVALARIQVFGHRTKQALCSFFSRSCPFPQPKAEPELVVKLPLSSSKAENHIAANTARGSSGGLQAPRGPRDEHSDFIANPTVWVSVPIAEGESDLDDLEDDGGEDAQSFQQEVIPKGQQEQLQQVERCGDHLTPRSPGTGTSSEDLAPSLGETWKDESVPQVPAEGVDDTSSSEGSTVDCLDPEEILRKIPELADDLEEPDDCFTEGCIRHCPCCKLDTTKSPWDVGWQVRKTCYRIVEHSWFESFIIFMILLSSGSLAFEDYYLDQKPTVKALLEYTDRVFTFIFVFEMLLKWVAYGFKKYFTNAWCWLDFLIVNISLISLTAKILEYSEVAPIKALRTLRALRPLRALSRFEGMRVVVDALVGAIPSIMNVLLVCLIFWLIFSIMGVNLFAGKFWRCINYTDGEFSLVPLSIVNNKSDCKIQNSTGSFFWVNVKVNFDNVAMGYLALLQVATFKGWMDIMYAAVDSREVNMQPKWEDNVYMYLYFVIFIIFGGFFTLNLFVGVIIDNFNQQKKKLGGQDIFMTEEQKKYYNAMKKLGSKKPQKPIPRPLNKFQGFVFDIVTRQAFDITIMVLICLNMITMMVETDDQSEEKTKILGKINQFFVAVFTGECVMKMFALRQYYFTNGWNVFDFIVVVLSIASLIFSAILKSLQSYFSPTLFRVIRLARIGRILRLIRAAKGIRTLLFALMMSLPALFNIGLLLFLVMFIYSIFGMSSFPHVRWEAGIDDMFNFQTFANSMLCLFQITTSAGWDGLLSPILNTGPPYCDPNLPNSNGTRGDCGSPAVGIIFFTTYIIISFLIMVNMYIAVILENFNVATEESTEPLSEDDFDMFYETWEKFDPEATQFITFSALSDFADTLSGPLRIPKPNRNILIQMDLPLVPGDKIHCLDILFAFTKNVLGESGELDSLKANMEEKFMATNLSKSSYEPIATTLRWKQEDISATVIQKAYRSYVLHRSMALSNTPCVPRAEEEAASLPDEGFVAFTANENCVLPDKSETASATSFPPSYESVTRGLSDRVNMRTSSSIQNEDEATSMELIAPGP", "sequence (Q07699 19-218 partner)": "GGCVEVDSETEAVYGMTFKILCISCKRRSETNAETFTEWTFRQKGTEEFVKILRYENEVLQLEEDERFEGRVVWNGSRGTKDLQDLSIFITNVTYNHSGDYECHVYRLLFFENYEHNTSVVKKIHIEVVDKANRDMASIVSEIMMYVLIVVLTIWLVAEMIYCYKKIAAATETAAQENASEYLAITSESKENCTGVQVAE", "assay": "QPatch 48 HTX electrophysiology assay, half inactivation state voltage protocol (V1/2), HEK293-Nav1.8 cells", "assay_type": "cell-based", "conditions": "HEK293 cells expressing human Nav1.8, human Navβ1 and human TREK1; V1/2 protocol, P2 current; IC50 in molar; average where more than one run", "description": "Human embryonic kidney 293 cells (HEK293) expressing human Nav1.8, human Navβ1 and human TREK1 (HEK293-Nav1.8) were grown at 37° C., 5% CO2 in 150 cm^2 flasks. HEK293-Nav1.8 were passaged every 2-3 days into T175 cell culture flasks when confluency reached 80-90%.\nPharmacological assessment of the compounds of the invention was performed using HEK293-Nav1.8 in combination with an assay developed on the QPatch 48 HTX electrophysiological system. HEK293-Nav1.8 were prepared on the day of use by removing culture media, washing in DPBS, adding Accutase (2 ml to cover the surface, aspirate 1 ml then 1.5 min at 37° C.) followed by addition of CHO-SFM II to stop the enzyme digestion and in order to obtain a suspension of 3×10^6 cell/mL.\nCompound was prepared in an extracellular solution of the following composition: NaCl (145 mM), KCl (4 mM), CaCl2 (2 mM), MgCl2 (2 mM), HEPES (1 mM), Glucose (10 mM), pH 7.4 with NaOH Osmolality 300 mOsM/L. The intracellular solution was used of the following composition: CsF (115 mM), CsCl (20 mM), NaCl (5 mM), EGTA (10 mM), HEPES (10 mM), Sucrose (20 mM), pH 7.2 with CsOH Osmolality 310 mOsm/L.\nUtilizing the voltage-clamp mode in the QPatch 48 HTX system a half inactivation state voltage protocol (V1/2) was used to determine pharmacological activity of compounds of the invention at Nav1.8 ion channels. A V1/2 protocol was utilized with the following voltage steps: a holding voltage of −100 mV was established followed by a 20 ms voltage step to 0 mV (P1), followed by an inactivating voltage step at −46 mV for 8 seconds, followed by a step to −100 mV for 20 ms, before a 20 ms step to 0 mV (P2) before returning to the holding voltage of −100 mV. This voltage protocol was repeated at a frequency of 0.07 Hz., current magnitude was quantified at the P2 step throughout the recording. Inhibition of the measured current amplitude with the compounds of the invention was analyzed by fitting a 4-8 point dose-response curve allowing determination of the fifty percent inhibition concentration (IC50). Within the QPatch HTX software, P2 current was normalized according to measurements made at baseline after compound and after positive reference compound and fit to the following equation: […]\nTo assess current run-down over the course of the experiment vehicle-only wells were utilized and the normalized current with vehicle-only (n.IVEH) was determined. To correct the compound response for run-down, the currents were corrected according the following formula: […]\nCompounds of the invention were tested for activity against […]. Potency of the compounds of the invention is reported as a pIC50 value. The pIC50 value is the negative log of the IC50 value, wherein the IC50 value is the half maximal inhibitory concentration measured in molar (M). For compounds tested in more than one experimental run, the pIC50 value is reported as an average.", "values": [
      {"smiles": "Cc1cc(F)ccc1N1CN(c2ccc(=O)[nH]c2C)C(=O)c2cc(Cl)ncc21", "note": "[Example 15, 6-Chloro-1-(4-fluoro-2-methylphenyl)-3-(2-methyl-6-oxo-1,6-dihydropyridin-3-yl)-2,3-dihydropyrido[3,4-d]pyrimidin-4(1H)-one]", "[Nav1.8] pIC50": 6.6},
      {"smiles": "Cc1[nH]c(=O)ccc1N1CN(c2ccc(F)c(F)c2C)c2cnc(C(F)(F)F)cc2C1=O", "note": "[Example 17, 1-(3,4-Difluoro-2-methylphenyl)-3-(2-methyl-6-oxo-1,6-dihydropyridin-3-yl)-6-(trifluoromethyl)-2,3-dihydropyrido[3,4-d]pyrimidin-4(1H)-one]", "[Nav1.8] pIC50": 7.2},
      {"smiles": "Cc1cc(F)ccc1N1CN(c2ccc(=O)[nH]c2C)C(=O)c2ccncc21", "note": "[Example 12, 1-(4-Fluoro-2-methylphenyl)-3-(2-methyl-6-oxo-1,6-dihydropyridin-3-yl)-2,3-dihydropyrido[3,4-d]pyrimidin-4(1H)-one]", "[Nav1.8] pIC50": 5.3},
      {"smiles": "Cc1cc(F)ccc1N1CN(c2cc(F)c(=O)[nH]c2C)C(=O)c2cc(C(F)(F)F)ncc21", "note": "[Example 11, 3-(5-Fluoro-2-methyl-6-oxo-1,6-dihydropyridin-3-yl)-1-(4-fluoro-2-methylphenyl)-6-(trifluoromethyl)-2,3-dihydropyrido[3,4-d]pyrimidin-4(1H)-one]", "[Nav1.8] pIC50": 6.5},
      {"smiles": "Cc1cc(F)ccc1N1CN(c2ccc(=O)[nH]c2C)C(=O)c2nc(C(F)(F)F)cnc21", "note": "[Example 8, 1-(4-Fluoro-2-methylphenyl)-3-(2-methyl-6-oxo-1,6-dihydropyridin-3-yl)-6-(trifluoromethyl)-2,3-dihydropteridin-4(1H)-one]", "[Nav1.8] pIC50": 5.1},
      {"smiles": "Cc1[nH]c(=O)ccc1N1CN(c2ccc(F)cc2C(C)C)c2cnc(C(F)(F)F)cc2C1=O", "note": "[Example 5, 1-(4-Fluoro-2-isopropylphenyl)-3-(2-methyl-6-oxo-1,6-dihydropyridin-3-yl)-6-(trifluoromethyl)-2,3-dihydropyrido[3,4-d]pyrimidin-4(1H)-one]", "[Nav1.8] pIC50": 7.2},
      {"smiles": "Cc1[nH]c(=O)ccc1N1CN(c2ccc(F)cc2C(C)C)c2cnc(Cl)cc2C1=O", "note": "[Example 3, 6-Chloro-1-(4-fluoro-2-isopropylphenyl)-3-(2-methyl-6-oxo-1,6-dihydropyridin-3-yl)-2,3-dihydropyrido[3,4-d]pyrimidin-4(1H)-one]", "[Nav1.8] pIC50": 7},
      {"smiles": "Cc1cc(OC(F)(F)F)ccc1N1CN(c2ccc(=O)[nH]c2C)C(=O)c2cc(C(F)(F)F)ncc21", "note": "[Example 16, 1-(2-Methyl-4-(trifluoromethoxy)phenyl)-3-(2-methyl-6-oxo-1,6-dihydropyridin-3-yl)-6-(trifluoromethyl)-2,3-dihydropyrido[3,4-d]pyrimidin-4(1H)-one]", "[Nav1.8] pIC50": 7.9},
      {"smiles": "Cc1cc(F)ccc1N1CN(c2ccc(=O)[nH]c2C)C(=O)c2cnc(C#N)cc21", "note": "[Example 19, 1-(4-Fluoro-2-methylphenyl)-3-(2-methyl-6-oxo-1,6-dihydropyridin-3-yl)-4-oxo-1,2,3,4-tetrahydropyrido[4,3-d]pyrimidine-7-carbonitrile]", "[Nav1.8] pIC50": 5.4},
      {"smiles": "CCc1cc(F)ccc1N1CN(c2ccc(=O)[nH]c2C)C(=O)c2cc(C(F)(F)F)ncc21", "note": "[Example 14, 1-(2-Ethyl-4-fluorophenyl)-3-(2-methyl-6-oxo-1,6-dihydropyridin-3-yl)-6-(trifluoromethyl)-2,3-dihydropyrido[3,4-d]pyrimidin-4(1H)-one]", "[Nav1.8] pIC50": 7.1},
      {"smiles": "CCc1cc(F)ccc1N1CN(c2ccc(=O)[nH]c2C)C(=O)c2cnc(C(F)(F)F)cc21", "note": "[Example 20, 1-(2-Ethyl-4-fluorophenyl)-3-(2-methyl-6-oxo-1,6-dihydropyridin-3-yl)-7-(trifluoromethyl)-2,3-dihydropyrido[4,3-d]pyrimidin-4(1H)-one]", "[Nav1.8] pIC50": 7.1},
      {"smiles": "Cc1cc(F)ccc1N1CN(c2ccc(=O)[nH]c2C)C(=O)c2cnc(C(F)(F)F)cc21", "note": "[Example 4, 1-(4-Fluoro-2-methylphenyl)-3-(2-methyl-6-oxo-1,6-dihydropyridin-3-yl)-7-(trifluoromethyl)-2,3-dihydropyrido[4,3-d]pyrimidin-4(1H)-one]", "[Nav1.8] pIC50": 6.8},
      {"smiles": "Cc1cc(OC(F)(F)F)ccc1N1CN(c2cc(F)c(=O)[nH]c2C)C(=O)c2cc(C(F)(F)F)ncc21", "note": "[Example 21, 3-(5-Fluoro-2-methyl-6-oxo-1,6-dihydropyridin-3-yl)-1-(2-methyl-4-(trifluoromethoxy)phenyl)-6-(trifluoromethyl)-2,3-dihydropyrido[3,4-d]pyrimidin-4(1H)-one]", "[Nav1.8] pIC50": 7.4},
      {"smiles": "CCc1c(N2CN(c3ccc(=O)[nH]c3C)C(=O)c3cc(C(F)(F)F)ncc32)ccc(F)c1F", "note": "[Example 10, 1-(2-Ethyl-3,4-difluorophenyl)-3-(2-methyl-6-oxo-1,6-dihydropyridin-3-yl)-6-(trifluoromethyl)-2,3-dihydropyrido[3,4-d]pyrimidin-4(1H)-one]", "[Nav1.8] pIC50": 7.5},
      {"smiles": "Cc1c[n+]([O-])ccc1N1CN(c2ccc(OC(F)(F)F)cc2C)c2cnc(C(F)(F)F)cc2C1=O", "note": "[Example 23, 3-Methyl-4-(1-(2-methyl-4-(trifluoromethoxy)phenyl)-4-oxo-6-(trifluoromethyl)-1,4-dihydropyrido[3,4-d]pyrimidin-3(2H)-yl)pyridine 1-oxide]", "[Nav1.8] pIC50": 6.7},
      {"smiles": "Cc1[nH]c(=O)ccc1N1CN(c2ccc(F)cc2C(C)C)c2ccc(Cl)nc2C1=O", "note": "[Example 9, 6-Chloro-1-(4-fluoro-2-isopropylphenyl)-3-(2-methyl-6-oxo-1,6-dihydropyridin-3-yl)-2,3-dihydropyrido[3,2-d]pyrimidin-4(1H)-one]", "[Nav1.8] pIC50": 5.8},
      {"smiles": "Cc1cc(F)ccc1N1CN(c2ccc(=O)[nH]c2C)C(=O)c2cnc(Cl)cc21", "note": "[Example 18, 7-Chloro-1-(4-fluoro-2-methylphenyl)-3-(2-methyl-6-oxo-1,6-dihydropyridin-3-yl)-2,3-dihydropyrido[4,3-d]pyrimidin-4(1H)-one]", "[Nav1.8] pIC50": 6.6},
      {"smiles": "Cc1cc(F)ccc1N1CN(c2ccc(=O)[nH]c2C)C(=O)c2cnc(C(F)(F)F)nc21", "note": "[Example 2, 1-(4-Fluoro-2-methylphenyl)-3-(2-methyl-6-oxo-1,6-dihydropyridin-3-yl)-7-(trifluoromethyl)-2,3-dihydropyrimido[4,5-d]pyrimidin-4(1H)-one]", "[Nav1.8] pIC50": 6},
      {"smiles": "Cc1cc(F)ccc1N1CN(c2ccc(=O)[nH]c2C)C(=O)c2cc(C(F)(F)F)ncc21", "note": "[Example 6, 1-(4-Fluoro-2-methylphenyl)-3-(2-methyl-6-oxo-1,6-dihydropyridin-3-yl)-6-(trifluoromethyl)-2,3-dihydropyrido[3,4-d]pyrimidin-4(1H)-one]", "[Nav1.8] pIC50": 7},
      {"smiles": "Cc1cc(F)ccc1N1CN(c2ccc(=O)[nH]c2C)C(=O)c2cc(C#N)ncc21", "note": "[Example 22, 1-(4-Fluoro-2-methylphenyl)-3-(2-methyl-6-oxo-1,6-dihydropyridin-3-yl)-4-oxo-1,2,3,4-tetrahydropyrido[3,4-d]pyrimidine-6-carbonitrile]", "[Nav1.8] pIC50": 5.4},
      {"smiles": "Cc1cc(F)ccc1N1CN(c2ccc(=O)[nH]c2C)C(=O)c2ncc(C(F)(F)F)nc21", "note": "[Example 7, 1-(4-Fluoro-2-methylphenyl)-3-(2-methyl-6-oxo-1,6-dihydropyridin-3-yl)-7-(trifluoromethyl)-2,3-dihydropteridin-4(1H)-one]", "[Nav1.8] pIC50": 5.4},
      {"smiles": "Cc1cc(F)ccc1N1CN(c2ccc(=O)[nH]c2C)C(=O)c2ncc(C(F)(F)F)cc21", "note": "[Example 1, 1-(4-Fluoro-2-methylphenyl)-3-(2-methyl-6-oxo-1,6-dihydropyridin-3-yl)-7-(trifluoromethyl)-2,3-dihydropyrido[3,2-d]pyrimidin-4(1H)-one]", "[Nav1.8] pIC50": 5.9}
    ]}
  ]
}
